Measured values published in patent US10072011B2, “Substituted bridged urea analogs as sirtuin modulators” (GlaxoSmithKline Intellectual Property (No.2) Limited, priority 2014, dated 2018).
Like-named read-outs stand apart in the source and are kept apart here.

Target: T1, SIRT1 (Homo sapiens, UniProt Q96EB6)
T1 sequence (Q96EB6 1-747): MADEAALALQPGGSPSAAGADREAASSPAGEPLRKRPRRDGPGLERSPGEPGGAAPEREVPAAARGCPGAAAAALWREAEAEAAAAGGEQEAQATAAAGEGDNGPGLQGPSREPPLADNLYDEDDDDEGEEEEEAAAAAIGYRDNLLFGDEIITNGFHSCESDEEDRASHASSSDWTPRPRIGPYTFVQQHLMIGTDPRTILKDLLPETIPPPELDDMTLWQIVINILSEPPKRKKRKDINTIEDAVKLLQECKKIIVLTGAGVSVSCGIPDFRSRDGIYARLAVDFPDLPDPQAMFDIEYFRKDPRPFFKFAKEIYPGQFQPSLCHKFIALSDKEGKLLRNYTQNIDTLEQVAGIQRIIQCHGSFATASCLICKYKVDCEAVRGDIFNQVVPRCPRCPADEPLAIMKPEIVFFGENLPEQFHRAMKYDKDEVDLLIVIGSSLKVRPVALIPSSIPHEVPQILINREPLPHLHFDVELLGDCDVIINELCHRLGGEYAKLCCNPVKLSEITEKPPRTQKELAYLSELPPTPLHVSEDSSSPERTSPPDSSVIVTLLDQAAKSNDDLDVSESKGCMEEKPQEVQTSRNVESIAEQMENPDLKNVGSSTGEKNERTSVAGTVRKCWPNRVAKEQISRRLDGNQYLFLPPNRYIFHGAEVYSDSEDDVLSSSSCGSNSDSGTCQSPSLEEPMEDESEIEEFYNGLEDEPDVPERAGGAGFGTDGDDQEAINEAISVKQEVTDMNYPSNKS
Assay: Trp mass spectrometry assay of SIRT1 activation (Ac-R-H-K-K(Ac)-W-NH2 peptide)
Type: biochemical
Conditions: for Emax: 25 min, read-out: TRP MAX RESP (percent maximum fold activation)
Method in brief: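 N-terminal His-tagged human SIRT1, expressed in BL21(DE3) and purified, was incubated 25 min with an acetylated Trp peptide and NAD plus test compound at varying concentrations, then quenched with formic acid. OAADPR or deacetylated peptide was quantified by mass spectrometry versus compound-free control; EC1.5 is the concentration giving 50% activity increase, with percent maximum activation.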

[1] = Trp peptide 0.5 μM, 120 μM βNAD+, 10 nM SIRT1, 25 min at 25° C., relative to control (100%)
[2] = Trp peptide 0.5 μM, 120 μM βNAD+, 10 nM SIRT1, 25 min at 25° C.

Compound	Emax [1] [%]	TRP Activity (EC1.5, concentration of test compound that results in 150% activation of SIRT1) [2]	TRP MAX RESP (percent maximum fold activation) [1]	Emax [%]
O=C(NC1CC1(F)F)c1ccc2c(n1)N(C(=O)Nc1ccccn1)[C@H]1CCN2C1 (stereo partly drawn) [Example 20, (4S)—N7-(2,2-difluorocyclopropyl)-N5-(pyridin-2-yl)-3,4-dihydro-1,4-methanopyrido[2,3-b][1,4]diazepine-5,7(2H)-dicarboxamide]	> 150	A (EC1.5<1 μM)		
Cc1ccc2c(NC(=O)N3c4nc(C(=O)N[C@H](C)C(F)(F)F)c(Cl)cc4N4CC[C@H]3C4)n[nH]c2n1 [Example 316, (4S)-8-chloro-N5-(6-methyl-1H-pyrazolo[3,4-b]pyridin-3-yl)-N7-((R)-1,1,1-trifluoropropan-2-yl)-3,4-dihydro-1,4-methanopyrido[2,3-b][1,4]diazepine-5,7(2H)-dicarboxamide]	< 150	B (EC1.5 1-25 μM)		
C[C@@H](NC(=O)c1ccc2c(n1)N(C(=O)NCC(=O)N(C)C)[C@H]1CCN2C1)C(F)(F)F [Example 217, (4S)—N5-(2-(dimethylamino)-2-oxoethyl)-N7-((R)-1,1,1-trifluoropropan-2-yl)-3,4-dihydro-1,4-methanopyrido[2,3-b][1,4]diazepine-5,7(2H)-dicarboxamide]	> 150	B (EC1.5 1-25 μM)		
C[C@@H](NC(=O)c1ccc2c(n1)N(C(=O)Nc1cnc(OC[C@H](O)CO)cn1)[C@H]1CCN2C1)C(F)(F)F [Example 194, (4S)—N5-(5-((R)-2,3-dihydroxypropoxy)pyrazin-2-yl)-N7-((R)-1,1,1-trifluoropropan-2-yl)-3,4-dihydro-1,4-methanopyrido[2,3-b][1,4]diazepine-5,7(2H)-dicarboxamide]	> 150	A (EC1.5<1 μM)		
Cc1c[nH]c2nc(NC(=O)N3c4nc(C(=O)NCC(F)(F)F)ccc4N4CC[C@H]3C4)ncc12 [Example 176, (4S)—N5-(5-methyl-7H-pyrrolo[2,3-d]pyrimidin-2-yl)-N7-(2,2,2-trifluoroethyl)-3,4-dihydro-1,4-methanopyrido[2,3-b][1,4]diazepine-5,7(2H)-dicarboxamide]		A (EC1.5<1 μM)		> 150
C[C@@H](NC(=O)c1ccc2c(n1)N(C(=O)Nc1ccc(OC[C@H](O)CO)nn1)[C@H]1CCN2C1)C(F)(F)F [Example 193, (4S)—N5-(6-((R)-2,3-dihydroxypropoxy)pyridazin-3-yl)-N7-((R)-1,1,1-trifluoropropan-2-yl)-3,4-dihydro-1,4-methanopyrido[2,3-b][1,4]diazepine-5,7(2H)-dicarboxamide]	> 150	A (EC1.5<1 μM)		
C[C@@H](NC(=O)c1ccc2c(n1)N(C(=O)Nc1ncc(F)cc1F)[C@H]1CCN2C1)C(F)(F)F [Example 310, (4S)—N5-(3,5-difluoropyridin-2-yl)-N7-((R)-1,1,1-trifluoropropan-2-yl)-3,4-dihydro-1,4-methanopyrido[2,3-b][1,4]diazepine-5,7(2H)-dicarboxamide]		B (EC1.5 1-25 μM)	B (Fold Activation<150%)	
Cc1ccc2c(NC(=O)N3c4nc(C(=O)NC[C@@H](N)C(F)(F)F)ccc4N4CC[C@H]3C4)n[nH]c2n1 (single isomer, unassigned) [Example 233]	> 150			
C[C@@H](NC(=O)c1ccc2c(n1)N(C(=O)Nc1ncc(OC[C@@H](O)CO)cn1)[C@H]1CCN2C1)C(F)(F)F [Example 177, (4S)—N5-(5-((S)-2,3-dihydroxypropoxy)pyrimidin-2-yl)-N7-((R)-1,1,1-trifluoropropan-2-yl)-3,4-dihydro-1,4-methanopyrido[2,3-b][1,4]diazepine-5,7(2H)-dicarboxamide]	> 150	B (EC1.5 1-25 μM)		
CC(NC(=O)c1ccc2c(n1)N(C(=O)Nc1ccccn1)[C@H]1CCN2C1)C1CC1 (single isomer, unassigned) [Example 101]		A (EC1.5<1 μM)		
O=C(NC1CC1(F)F)c1ccc2c(n1)N(C(=O)Nc1cc(OC[C@H](O)CO)ccn1)[C@H]1CCN2C1 (single isomer, unassigned) [Example 245]	> 150	A (EC1.5<1 μM)		
Cc1ccc2c(NC(=O)N3c4nc(C(=O)N[C@H](C)C(F)(F)F)ccc4N4CC[C@H]3C4)n[nH]c2n1 [Example 76, (4S)—N5-(6-methyl-1H-pyrazolo[3,4-b]pyridin-3-yl)-N7-((R)-1,1,1-trifluoropropan-2-yl)-3,4-dihydro-1,4-methanopyrido[2,3-b][1,4]diazepine-5,7(2H)-dicarboxamide]	> 150	A (EC1.5<1 μM)		

The next lines start with results.

Emax [1] [%]	TRP Activity (EC1.5, concentration of test compound that results in 150% activation of SIRT1) [2]	TRP MAX RESP (percent maximum fold activation) [1]	Compound	Emax [%]
> 150	A (EC1.5<1 μM)		C[C@@H](NC(=O)c1ccc2c(n1)N(C(=O)Nc1cc(N3CCOC3=O)ccn1)[C@H]1CCN2C1)C(F)(F)F [Example 165, (4S)—N5-(4-(2-oxooxazolidin-3-yl)pyridin-2-yl)-N7-((R)-1,1,1-trifluoropropan-2-yl)-3,4-dihydro-1,4-methanopyrido[2,3-b][1,4]diazepine-5,7(2H)-dicarboxamide]	
> 150	B (EC1.5 1-25 μM)		C[C@@H](NC(=O)c1ccc2c(n1)N(C(=O)Nc1cc(OCC(=O)O)ccn1)[C@H]1CCN2C1)C(F)(F)F [Example 265, 2-((2-((4S)-7-(((R)-1,1,1-trifluoropropan-2-yl)carbamoyl)-2,3,4,5-tetrahydro-1,4-methanopyrido[2,3-b][1,4]diazepine-5-carboxamido)pyridin-4-yl)oxy)acetic acid]	
> 150	A (EC1.5<1 μM)		CCCNC(=O)c1ccc2c(n1)N(C(=O)Nc1ccccn1)[C@H]1CCN2C1 [Example 40, (4S)—N7-propyl-N5-(pyridin-2-yl)-3,4-dihydro-1,4-methanopyrido[2,3-b][1,4]diazepine-5,7(2H)-dicarboxamide]	
> 150	A (EC1.5<1 μM)		COc1cc2c(nc1C(=O)NCC(F)(F)F)N(C(=O)Nc1ccccn1)[C@H]1CCN2C1 [Example 284, (4S)-8-methoxy-N5-(pyridin-2-yl)-N7-(2,2,2-trifluoroethyl)-3,4-dihydro-1,4-methanopyrido[2,3-b][1,4]diazepine-5,7(2H)-dicarboxamide]	
> 150	A (EC1.5<1 μM)		C#Cc1ccnc(NC(=O)N2c3nc(C(=O)NCC(F)(F)F)ccc3N3CC[C@H]2C3)c1 [Example 164, (4S)—N5-(4-ethynylpyridin-2-yl)-N7-(2,2,2-trifluoroethyl)-3,4-dihydro-1,4-methanopyrido[2,3-b][1,4]diazepine-5,7(2H)-dicarboxamide]	
> 150	A (EC1.5<1 μM)		CC(C)[C@@H](NC(=O)c1ccc2c(n1)N(C(=O)Nc1ccccn1)[C@H]1CCN2C1)C(F)(F)F [Example 29, (4S)—N5-(pyridin-2-yl)-N7-((R)-1,1,1-trifluoro-3-methylbutan-2-yl)-3,4-dihydro-1,4-methanopyrido[2,3-b][1,4]diazepine-5,7(2H)-dicarboxamide]	
> 150	A (EC1.5<1 μM)		Cn1cccc(NC(=O)N2c3nc(C(=O)NCC(F)(F)F)ccc3N3CC[C@H]2C3)c1=O [Example 23, (4S)—N5-(1-methyl-2-oxo-1,2-dihydropyridin-3-yl)-N7-(2,2,2-trifluoroethyl)-3,4-dihydro-1,4-methanopyrido[2,3-b][1,4]diazepine-5,7(2H)-dicarboxamide]	
> 150	B (EC1.5 1-25 μM)		O=C(NCC(F)(F)F)c1ccc2c(n1)N(C(=O)Nc1cnc(OC[C@@H](O)CO)cn1)[C@H]1CCN2C1 [Example 118, (4S)—N5-(5-((S)-2,3-dihydroxypropoxy)pyrazin-2-yl)-N7-(2,2,2-trifluoroethyl)-3,4-dihydro-1,4-methanopyrido[2,3-b][1,4]diazepine-5,7(2H)-dicarboxamide]	
